What was measured:
[1] = system: matrix metalloproteinases (MMP-2, MMP-9) in chondrocyte-conditioned medium; assay: Gelatin zymography for MMP activity; format: biochemical, bovine or porcine
Method: Cell viability and number were determined by Trypan blue staining and counting using a hemocytometer. Chondrocytes were plated on collagen inserts (Costar Transwell, VWR, Pittsburgh, Pa.) at 20-40×10^6 cells/well in DMEM/F12 containing antibiotics, 10% FBS, and 50 μg/ml ascorbic acid (prepared fresh and added every other day). After the chondrocytes had formed a layer of extracellular matrix (approximately 2 weeks), the medium was switched to serum free (DMEM/F12 with antibiotics, 5 μg/ml insulin, 15 μg/ml bovine pituitary extract, 10 μg/ml epidermal growth factor, 5 μg/ml transferrin, 1 μM hydrocortisone, 10^−8 M retinol, and ascorbic acid). Cultures were fed from the bottom every 3-4 days. Medium was collected from chondrocyte cultures on days 3, 5, 7, 10, and 14 after switching from 10% FBS-containing medium to SFM. […]
CCM or SFM, obtained as described above, was mixed with 2× sample buffer (20 mM DTT, 4% SDS, 50 mM Tris, 20% glycine, 0.002% Bromophenol blue), loaded without prior heating, and electrophoresed under non-reducing conditions at 4° C. for approximately 4 hours under constant voltage. […] Gels were rinsed twice with distilled water then stained for 1 hour in Coomassie blue stain, followed by destaining in water/methanol/acetic acid (6:3.5:0.5) until clear areas of enzyme activity were detected against a blue background. […]

[2] = system: respiratory epithelial cells; assay: Proliferation of respiratory epithelial cells (cell number by hemocytometer count); format: cell-based, porcine
Method: Porcine tracheal tissue obtained at necropsy was cleaned of debris, rinsed thoroughly with PBS, and epithelium and submucosa removed and soaked overnight at 4° C. in MEM containing antibiotics/antimycotics. Dissociated respiratory epithelial cells were isolated using elastase digestion as described by Hicks et al. (“Rapid Isolation of Upper Respiratory Epithelial Cells,” Mol. Biol. Cell., 5(Suppl.): 118a (Abstract), (1995); Hicks et al., “Isolation and Characterization of Basal Cells from Human Upper Respiratory Epithelium,” Exp. Cell Res. 237:357-363 (1997), which are hereby incorporated by reference) and plated on top of type I collagen-coated 35 mm petri dishes at 0.2×10^6 cells/cm^2 in serum free medium. In selected experiments, cells were cultured in Biocoat type I collagen-coated 24 well plates. Medium was collected for gelatin zymography as described above.
The proliferative effects of CCM on REC were assessed by addition of CCM diluted 1:1 with SFM. REC cultures grown on type I collagen were fed 0.1 ml CCM or control SFM daily, and media were changed completely every 3 days. […] After incubation at 37° C. for 20 minutes, REC were again washed with PBS/10% FBS, then resuspended in PBS and an aliquot counted using Trypan blue dye exclusion to determine viability and cell number. […]

SMILES	MMP enzyme activity on zymogram developed in presence of chelator ([1]; developing buffer containing 20 mM EDTA (FIG. 5B))	Block of MMP (marker protein) activity in pooled CCM by gelatin zymography ([1]; 5 nM, medium of day 3 and day 7 (FIGS. 7A-B))	Effect on REC proliferation ([2]; 5 nM, REC cultured with or without CCM, cell number after 7 days)	Restoration of REC proliferation to control levels ([2]; concentrations of 10 and 50 W, in presence of CCM (FIG. 8))
O=C(O)CN(CCN(CC(=O)O)CC(=O)O)CC(=O)O [EDTA, ethylenediamine tetraacetic acid]	enzyme activity was abolished			
CNC(=O)[C@H](Cc1c[nH]c2ccccc12)NC(=O)[C@@H](CC(=O)NO)CC(C)C [GM6001]		did not block marker protein activity	nor was proliferation positively affected	proliferation was not restored to control levels

Source: patent publication US6465205B2, “In vitro cell culture device including cartilage and methods of using the same” (The Research Foundation of State University of New York, priority 1999, dated 2002)
